Reference: paper PMC4212090, “The comprehensive analysis of DEG/ENaC subunits in Hydra reveals a large variety of peptide-gated channels, potentially involved in neuromuscular transmission” (BMC Biology, 2014)
Read-outs that look alike come from different tables or passages of the source.

Key:
[1] = target: HyNaC2/3/5 (Hydra magnipapillata)
[2] = target: HyNaC2/9/7 (Hydra magnipapillata)
[3] = target: HyNaC2/3/6 (Hydra magnipapillata)
[4] = target: HyNaC2/10/7 (Hydra magnipapillata)
[5] = target: HyNaC2/11/5 (Hydra magnipapillata)
[6] = target: HyNaC2/4/6 (Hydra magnipapillata)
[7] = target: HyNaC2/3/7 (Hydra magnipapillata)
[8] = target: HyNaC2/11/5 (Hydra vulgaris (Hydra magnipapillata), UniProt A0A0A0MP55+A8DZR6+D3UD58); assay: Activation of HyNaC2/11/5 expressed in Xenopus oocytes by Hydra-RFamides (TEVC); assay type: cell-based
Chain of HyNaC2/11/5 (A0A0A0MP55 entry or part of it): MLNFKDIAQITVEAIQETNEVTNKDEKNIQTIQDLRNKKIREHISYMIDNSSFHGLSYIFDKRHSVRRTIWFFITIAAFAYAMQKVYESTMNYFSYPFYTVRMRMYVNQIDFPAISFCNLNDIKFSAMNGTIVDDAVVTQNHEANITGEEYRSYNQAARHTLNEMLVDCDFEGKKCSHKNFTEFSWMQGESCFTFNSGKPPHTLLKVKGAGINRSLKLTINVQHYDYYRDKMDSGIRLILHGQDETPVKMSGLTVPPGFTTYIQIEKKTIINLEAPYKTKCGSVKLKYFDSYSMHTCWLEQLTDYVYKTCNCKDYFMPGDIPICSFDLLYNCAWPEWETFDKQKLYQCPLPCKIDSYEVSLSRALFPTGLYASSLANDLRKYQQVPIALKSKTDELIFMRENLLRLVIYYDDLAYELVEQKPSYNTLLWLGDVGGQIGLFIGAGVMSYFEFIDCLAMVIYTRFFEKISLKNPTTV
Chain of HyNaC2/11/5 (A8DZR6 entry or part of it): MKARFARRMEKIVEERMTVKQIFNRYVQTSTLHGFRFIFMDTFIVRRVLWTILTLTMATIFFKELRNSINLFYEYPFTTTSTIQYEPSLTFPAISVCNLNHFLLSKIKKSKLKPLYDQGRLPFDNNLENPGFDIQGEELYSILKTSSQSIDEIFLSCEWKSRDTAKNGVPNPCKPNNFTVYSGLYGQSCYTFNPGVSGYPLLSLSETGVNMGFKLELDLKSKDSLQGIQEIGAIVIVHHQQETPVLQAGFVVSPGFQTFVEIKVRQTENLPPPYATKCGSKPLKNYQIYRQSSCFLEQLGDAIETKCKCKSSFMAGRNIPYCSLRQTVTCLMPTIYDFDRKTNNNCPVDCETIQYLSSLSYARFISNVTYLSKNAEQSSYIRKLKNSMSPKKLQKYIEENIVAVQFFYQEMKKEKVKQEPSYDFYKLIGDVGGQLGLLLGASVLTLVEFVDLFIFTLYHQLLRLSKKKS
Chain of HyNaC2/11/5 (D3UD58 entry or part of it): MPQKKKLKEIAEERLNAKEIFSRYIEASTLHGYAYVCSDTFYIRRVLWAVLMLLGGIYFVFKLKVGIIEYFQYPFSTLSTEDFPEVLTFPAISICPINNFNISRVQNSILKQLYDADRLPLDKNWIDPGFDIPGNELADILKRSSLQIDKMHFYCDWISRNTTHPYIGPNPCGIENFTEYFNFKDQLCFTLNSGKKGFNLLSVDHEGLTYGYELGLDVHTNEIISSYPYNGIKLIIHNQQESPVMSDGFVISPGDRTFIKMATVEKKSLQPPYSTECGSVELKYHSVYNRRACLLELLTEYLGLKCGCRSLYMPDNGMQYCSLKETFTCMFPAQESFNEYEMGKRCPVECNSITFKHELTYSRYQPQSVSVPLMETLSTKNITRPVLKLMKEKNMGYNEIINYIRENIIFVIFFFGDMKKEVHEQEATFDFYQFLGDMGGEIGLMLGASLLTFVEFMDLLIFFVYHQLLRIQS
Protocol: (§1) To study the biophysical properties of the new HyNaCs, cRNA of HyNaCs was synthesized in vitro (mMessage mMachine kit, Ambion, Austin, Texas, USA) and injected into Xenopus laevis oocytes of stage V and VI. After injection, oocytes were incubated for one to two days at 19°C in oocyte Ringer’s solution 2 (OR-2), which contained (in mM): 82.5 NaCl, 2.5 KCl, 1.0 Na2HPO4, 1.0 MgCl2, 1.0 CaCl2, 5.0 HEPES, 0.5 g/l PVP, 1,000 U/l penicillin and 10 mg/l streptomycin, NaOH was used to adjust pH to 7.3. Whole cell currents were recorded from defolliculated oocytes by two-electrode voltage-clamp (TEVC) using the amplifier TurboTec 03X (npi electronic GmbH, Tamm, Germany). Standard bath solution (in mM: 140 NaCl, 10 HEPES, 1.8 CaCl2 and 1.0 MgCl2. NaOH was used to adjust pH to 7.4.) was exchanged by a pump driven system combined with the oocyte testing carousel (OTC), which was controlled by the interface OTC-20 [53]. To control the OTC-20 and to record the data to the hard drive, the software CellWorks (version 5.1.1; npi electronic GmbH, Tamm, Germany) was used. Data were sampled at 0.1 to 1 kHz and filtered at 20 Hz. HyNaCs are permeable for Ca^2+, activating an endogenous CaCC [40]. Therefore, unless otherwise indicated, oocytes were injected with 50 nl of 20 mM EGTA 30 to 180 minutes before measurements. Reversal potentials and Ca^2+ permeabilities of HyNaCs were studied as described previously.
(§2) EC50 values for Hydra-RFamides I and II as well as IC50 values for diminazene were determined by fits to the Hill equation using IGOR Pro (version 6.06, WaveMetrics, Inc.). Reversal potentials were defined as the first recorded data point, where currents reversed signs from negative to positive. For I/V relationships, voltage ramps in the absence of the agonist were used to subtract background conductances. Results are reported as mean ± standard error.

[9] = target: HyNaC2/9/7 (Hydra vulgaris (Hydra magnipapillata), UniProt A0A0A0MP48+A0A0A0MP73+A8DZR6); assay: Activation of HyNaC2/9/7 expressed in Xenopus oocytes by Hydra-RFamides (TEVC); assay type: cell-based; settings: EGTA-injected oocytes
Chain of HyNaC2/9/7 (A0A0A0MP48 entry or part of it): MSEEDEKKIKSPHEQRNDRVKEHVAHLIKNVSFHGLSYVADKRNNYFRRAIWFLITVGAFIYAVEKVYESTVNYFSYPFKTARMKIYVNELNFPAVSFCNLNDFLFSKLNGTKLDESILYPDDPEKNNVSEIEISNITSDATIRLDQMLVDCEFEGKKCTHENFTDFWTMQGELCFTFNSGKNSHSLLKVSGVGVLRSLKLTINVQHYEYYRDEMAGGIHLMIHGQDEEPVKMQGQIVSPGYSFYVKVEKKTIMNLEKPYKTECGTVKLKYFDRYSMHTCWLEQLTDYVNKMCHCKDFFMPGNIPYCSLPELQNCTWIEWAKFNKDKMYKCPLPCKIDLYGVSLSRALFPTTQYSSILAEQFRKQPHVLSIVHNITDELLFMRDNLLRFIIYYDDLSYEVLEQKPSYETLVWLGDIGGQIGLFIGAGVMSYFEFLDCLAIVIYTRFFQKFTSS
Chain of HyNaC2/9/7 (A8DZR6 entry or part of it): as the sequence (A8DZR6 entry or part of it) above
Chain of HyNaC2/9/7 (A0A0A0MP73 entry or part of it): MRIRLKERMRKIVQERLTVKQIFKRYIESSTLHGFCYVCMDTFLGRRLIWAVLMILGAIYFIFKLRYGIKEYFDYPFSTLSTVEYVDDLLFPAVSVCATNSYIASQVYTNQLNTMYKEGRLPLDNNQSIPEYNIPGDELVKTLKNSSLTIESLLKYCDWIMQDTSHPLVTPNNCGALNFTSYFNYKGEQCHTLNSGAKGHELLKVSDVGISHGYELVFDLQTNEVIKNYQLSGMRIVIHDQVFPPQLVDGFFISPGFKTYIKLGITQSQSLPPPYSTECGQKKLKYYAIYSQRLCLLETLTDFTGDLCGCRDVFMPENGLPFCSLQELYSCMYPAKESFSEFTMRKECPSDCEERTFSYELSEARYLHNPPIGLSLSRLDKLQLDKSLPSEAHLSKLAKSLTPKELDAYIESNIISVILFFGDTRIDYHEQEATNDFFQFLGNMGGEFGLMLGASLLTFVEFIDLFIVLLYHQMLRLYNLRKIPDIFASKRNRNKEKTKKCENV
Protocol: as §1, §2

[10] = target: HyNaC2/4/6 (Hydra vulgaris (Hydra magnipapillata), UniProt A0A0A0MP54+A8DZR6+A8DZR8); assay: Activation of HyNaC2/4/6 expressed in Xenopus oocytes by Hydra-RFamides (TEVC); assay type: cell-based; settings: EGTA-injected oocytes
Chain of HyNaC2/4/6 (A8DZR8 entry or part of it): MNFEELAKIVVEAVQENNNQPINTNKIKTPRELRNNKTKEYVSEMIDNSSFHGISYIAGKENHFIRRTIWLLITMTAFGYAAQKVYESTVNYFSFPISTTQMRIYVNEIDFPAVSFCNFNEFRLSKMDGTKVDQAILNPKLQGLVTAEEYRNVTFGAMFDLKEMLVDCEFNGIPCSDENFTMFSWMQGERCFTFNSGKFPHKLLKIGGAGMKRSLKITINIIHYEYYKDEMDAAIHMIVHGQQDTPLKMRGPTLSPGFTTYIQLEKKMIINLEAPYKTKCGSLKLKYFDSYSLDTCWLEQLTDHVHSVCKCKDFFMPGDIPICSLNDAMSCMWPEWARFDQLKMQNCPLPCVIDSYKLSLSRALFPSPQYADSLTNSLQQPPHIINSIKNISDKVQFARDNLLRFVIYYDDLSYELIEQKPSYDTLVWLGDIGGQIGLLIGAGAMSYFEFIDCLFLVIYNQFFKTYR
Chain of HyNaC2/4/6 (A0A0A0MP54 entry or part of it): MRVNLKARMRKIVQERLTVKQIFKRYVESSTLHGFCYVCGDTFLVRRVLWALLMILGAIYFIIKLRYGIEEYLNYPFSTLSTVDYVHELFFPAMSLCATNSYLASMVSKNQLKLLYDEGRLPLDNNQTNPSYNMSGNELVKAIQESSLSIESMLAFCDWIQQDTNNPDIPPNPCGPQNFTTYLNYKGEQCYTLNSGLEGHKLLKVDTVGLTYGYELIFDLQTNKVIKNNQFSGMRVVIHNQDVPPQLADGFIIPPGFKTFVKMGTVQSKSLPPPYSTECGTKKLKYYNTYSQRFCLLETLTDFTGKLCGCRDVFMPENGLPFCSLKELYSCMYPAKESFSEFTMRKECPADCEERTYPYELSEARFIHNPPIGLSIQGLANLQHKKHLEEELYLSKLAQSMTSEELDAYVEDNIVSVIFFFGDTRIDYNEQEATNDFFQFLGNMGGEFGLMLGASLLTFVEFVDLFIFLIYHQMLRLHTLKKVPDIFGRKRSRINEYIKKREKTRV
Chain of HyNaC2/4/6 (A8DZR6 entry or part of it): as the sequence (A8DZR6 entry or part of it) above
Protocol: as §1, §2

[11] = target: T1, HyNaC2/3/5 (Hydra vulgaris (Hydra magnipapillata), UniProt A8DZR6+A8DZR7+D3UD58); design: method as in PMID 20159980; settings: ref [4], cited from earlier work
T1 sequence (A8DZR6 entry or part of it): as above
T1 sequence (D3UD58 entry or part of it): as the sequence (D3UD58 entry or part of it) above
T1 sequence (A8DZR7 entry or part of it): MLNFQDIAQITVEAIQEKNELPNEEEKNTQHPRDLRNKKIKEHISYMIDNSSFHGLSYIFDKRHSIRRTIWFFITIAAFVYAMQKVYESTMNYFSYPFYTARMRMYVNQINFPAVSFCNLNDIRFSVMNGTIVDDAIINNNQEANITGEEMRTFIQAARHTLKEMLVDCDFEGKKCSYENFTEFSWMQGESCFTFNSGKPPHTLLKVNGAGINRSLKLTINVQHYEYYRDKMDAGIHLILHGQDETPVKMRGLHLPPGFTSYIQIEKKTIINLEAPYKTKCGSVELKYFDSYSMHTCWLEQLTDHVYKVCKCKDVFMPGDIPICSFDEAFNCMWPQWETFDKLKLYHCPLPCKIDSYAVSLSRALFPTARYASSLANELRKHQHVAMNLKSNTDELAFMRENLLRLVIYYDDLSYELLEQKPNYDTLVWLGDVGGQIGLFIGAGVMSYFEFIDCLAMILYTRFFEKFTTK

[12] = target: HyNaC2/3/7 (Hydra vulgaris (Hydra magnipapillata), UniProt A0A0A0MP73+A8DZR6+A8DZR7); assay: Activation of HyNaC2/3/7 expressed in Xenopus oocytes by Hydra-RFamides (TEVC); assay type: cell-based; settings: EGTA-injected oocytes
Chain of HyNaC2/3/7 (A8DZR7 entry or part of it): as above
Chain of HyNaC2/3/7 (A0A0A0MP73 entry or part of it): as the sequence (A0A0A0MP73 entry or part of it) above
Chain of HyNaC2/3/7 (A8DZR6 entry or part of it): as the sequence (A8DZR6 entry or part of it) above
Protocol: as §1, §2

[13] = tested on: functional HyNaC heterotrimer; assay: Screen of functional HyNaC heterotrimers in Xenopus oocytes for activation by Hydra-RFamides; assay type: cell-based, Hydra magnipapillata
Protocol: We tested the function of the new HyNaCs by co-expression of different HyNaC subunit combinations in Xenopus oocytes. We screened for functional subunit combinations by application of 5 μM Hydra-RFamide I, a potent agonist of HyNaC2/3/5 [4]. When we expressed an individual HyNaC subunit we could never elicit currents. […] When HyNaC2 was part of the injected cRNA pool, however, Hydra-RFamide I elicited currents. Simultaneous expression of HyNaC2 with a single other HyNaC resulted only in a functional channel when we co-expressed HyNaC2 and HyNaC3; it was already known that HyNaC2 and HyNaC3 form a low-affinity peptide-gated channel.
Dashed line represents the zero current level. Amino acid sequences of Hydra-RFamides I to V are shown at the bottom. HyNaC, Hydra Na^+ channel.
Since Hydra-RFamide II had been shown previously to activate HyNaC2/3/5 [4], we tested Hydra-RFamides II to V for channel activation.
as §1

[14] = target: HyNaC2/3/6 (Hydra vulgaris (Hydra magnipapillata), UniProt A0A0A0MP54+A8DZR6+A8DZR7); assay: Activation of HyNaC2/3/6 expressed in Xenopus oocytes by Hydra-RFamides (TEVC); assay type: cell-based; settings: EGTA-injected oocytes
Chain of HyNaC2/3/6 (A0A0A0MP54 entry or part of it): as the sequence (A0A0A0MP54 entry or part of it) above
Chain of HyNaC2/3/6 (A8DZR7 entry or part of it): as the sequence (A8DZR7 entry or part of it) above
Chain of HyNaC2/3/6 (A8DZR6 entry or part of it): as the sequence (A8DZR6 entry or part of it) above
Protocol: as §1, §2

[15] = target: T1, HyNaC2/3/5; assay: Activation of HyNaC2/3/5 expressed in Xenopus oocytes by Hydra-RFamides (TEVC); assay type: cell-based; settings: EGTA-injected oocytes
Protocol: as §1, §2

[16] = tested on: HyNaC2/9/5; assay: Activation of HyNaC2/9/5 in Xenopus oocytes by Hydra-RFamides; assay type: cell-based, Hydra magnipapillata; settings: channel opened by lowering extracellular Ca2+
Protocol: The contribution of the distantly related HyNaC12 to peptide-gated channels was assessed by co-expression with HyNaC2 and one or several other HyNaCs (HyNaC3 to HyNaC11). In addition, HyNaC12 was co-expressed with pools of different HyNaCs without HyNaC2. […] In fact, all HyNaCs that were activated by Hydra-RFamide I were opened by lowering the extracellular Ca^2+ concentration ([Ca^2+]e) to 10 nM (Figure 4). […] Some DEG/ENaCs are constitutively opened by an amino acid substitution at the so-called DEG-position. To further investigate whether HyNaC12 forms a functional homomeric channel, we substituted a glycine at the DEG-position by threonine (G436T), which has a large side chain. This substitution did, however, not constitutively open HyNaC12 (data not shown). This applies also for the co-expression of HyNaC12-G436T together with pools of different wild-type HyNaC subunits, leaving the function of HyNaC12 unknown.
To study the biophysical properties of the new HyNaCs, cRNA of HyNaCs was synthesized in vitro (mMessage mMachine kit, Ambion, Austin, Texas, USA) and injected into Xenopus laevis oocytes of stage V and VI. […] Whole cell currents were recorded from defolliculated oocytes by two-electrode voltage-clamp (TEVC) using the amplifier TurboTec 03X (npi electronic GmbH, Tamm, Germany). […]

[17] = target: HyNaC2/10/7 (Hydra vulgaris (Hydra magnipapillata), UniProt A0A0A0MP61+A0A0A0MP73+A8DZR6); assay: Activation of HyNaC2/10/7 expressed in Xenopus oocytes by Hydra-RFamides (TEVC); assay type: cell-based; settings: EGTA-injected oocytes
Chain of HyNaC2/10/7 (A0A0A0MP61 entry or part of it): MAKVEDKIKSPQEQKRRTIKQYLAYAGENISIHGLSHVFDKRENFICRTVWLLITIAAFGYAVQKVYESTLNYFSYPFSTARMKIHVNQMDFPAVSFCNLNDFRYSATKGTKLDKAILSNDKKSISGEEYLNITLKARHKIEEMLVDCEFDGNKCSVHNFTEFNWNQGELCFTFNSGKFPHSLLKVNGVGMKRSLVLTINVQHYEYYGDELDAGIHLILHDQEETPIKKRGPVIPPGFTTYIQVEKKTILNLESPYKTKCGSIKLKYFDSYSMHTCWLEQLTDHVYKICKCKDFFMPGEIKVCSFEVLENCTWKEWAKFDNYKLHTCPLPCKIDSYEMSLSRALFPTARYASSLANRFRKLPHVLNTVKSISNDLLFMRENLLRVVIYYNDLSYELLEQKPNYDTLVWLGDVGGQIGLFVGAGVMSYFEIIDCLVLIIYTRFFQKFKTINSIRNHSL
Chain of HyNaC2/10/7 (A0A0A0MP73 entry or part of it): as the sequence (A0A0A0MP73 entry or part of it) above
Chain of HyNaC2/10/7 (A8DZR6 entry or part of it): as the sequence (A8DZR6 entry or part of it) above
Protocol: as §1, §2

[18] = target: HyNaC2/3/6 (Hydra magnipapillata); remark: listed apart in the source
[19] = target: HyNaC2/10/7 (Hydra magnipapillata); remark: listed apart in the source
[20] = target: HyNaC2/4/6 (Hydra magnipapillata); remark: listed apart in the source
[21] = target: HyNaC2/3/7 (Hydra magnipapillata); remark: listed apart in the source
[22] = target: HyNaC2/3/5 (Hydra magnipapillata); remark: listed apart in the source
[23] = target: HyNaC2/9/7 (Hydra magnipapillata); remark: listed apart in the source
[24] = target: HyNaC2/11/5 (Hydra magnipapillata); remark: listed apart in the source

## Hydra-RFamide I (peptide)
[1]
  EC50 of current activation by Hydra-RFamide I (two-electrode voltage clamp, Xenopus oocytes injected with EGTA): 3480 nM
[2]
  EC50 of current activation by Hydra-RFamide I (two-electrode voltage clamp, Xenopus oocytes injected with EGTA): 40 nM
[3]
  EC50 of current activation by Hydra-RFamide I (two-electrode voltage clamp, Xenopus oocytes injected with EGTA): 290 nM
[4]
  EC50 of current activation by Hydra-RFamide I (two-electrode voltage clamp, Xenopus oocytes injected with EGTA); saturation not reached: > 30000 nM
[5]
  EC50 of current activation by Hydra-RFamide I (two-electrode voltage clamp, Xenopus oocytes injected with EGTA): 13800 nM
[6]
  EC50 of current activation by Hydra-RFamide I (two-electrode voltage clamp, Xenopus oocytes injected with EGTA): 700 nM
[7]
  EC50 of current activation by Hydra-RFamide I (two-electrode voltage clamp, Xenopus oocytes injected with EGTA): 190 nM

## Hydra-RFamide II
[8]; 0.95 μM compared with 13.8 μM
  apparent affinity for Hydra-RFamide II relative to Hydra-RFamide I: about 15 fold
[8]; EGTA-injected oocytes
  current amplitude at highest agonist concentration (Hydra-RFamide II): 2.2 ± 0.4 μA
[8]; EGTA-injected oocytes, read-out: EC50 for Hydra-RFamide II
  EC50: 950 ± 160 nM
[9]
  current amplitude at highest agonist concentration (Hydra-RFamide II): 3.6 ± 1.3 μA
[9]; read-out: EC50 for Hydra-RFamide II
  EC50: 40 ± 10 nM
[10]
  current amplitude at highest agonist concentration (Hydra-RFamide II): 4.7 ± 0.8 μA
[11]; oocytes not injected with EGTA, read-out: EC50 (apparent affinity) for Hydra-RFamide II
  EC50: 340 ± 80 nM
[11]
  apparent affinity for Hydra-RFamide II relative to Hydra-RFamide I: ten times higher
[12]
  current amplitude at highest agonist concentration (Hydra-RFamide II): 11.8 ± 4.0 μA
[13]; data not shown
  activation of channels that were activated by Hydra-RFamide I: also activated
[14]
  current amplitude at highest agonist concentration (Hydra-RFamide II): 9.2 ± 1.7 μA
[15]
  current amplitude at highest agonist concentration (Hydra-RFamide II): 5.3 ± 1.0 μA
[15]; read-out: EC50 (apparent affinity) for Hydra-RFamide II
  EC50: 1610 ± 270 nM
[16]
  activation of HyNaC2/9/5: not activated
[17]
  current amplitude at highest agonist concentration (Hydra-RFamide II): 1.1 ± 0.4 μA

## Hydra-RFamide V
[13]; 5 μM peptide, Xenopus oocytes
  activation of functional HyNaC heterotrimers (current elicited): did not elicit a current

## Hydra-RFamide II (peptide)
[18]
  current at the highest concentration of Hydra-RFamide II of the concentration-response series (two-electrode voltage clamp, EGTA-injected oocytes); concentrations and EC50 not given: 9.2 μA
[19]
  current at the highest concentration of Hydra-RFamide II of the concentration-response series (two-electrode voltage clamp, EGTA-injected oocytes); concentrations and EC50 not given: 1.1 μA
[20]
  current at the highest concentration of Hydra-RFamide II of the concentration-response series (two-electrode voltage clamp, EGTA-injected oocytes); concentrations and EC50 not given: 4.7 μA
[21]
  current at the highest concentration of Hydra-RFamide II of the concentration-response series (two-electrode voltage clamp, EGTA-injected oocytes); concentrations and EC50 not given: 11.8 μA
[22]
  EC50 of current activation by Hydra-RFamide II (two-electrode voltage clamp, Xenopus oocytes injected with EGTA): 1610 nM
[23]
  EC50 of current activation by Hydra-RFamide II (two-electrode voltage clamp, Xenopus oocytes injected with EGTA): 40 nM
[24]
  EC50 of current activation by Hydra-RFamide II (two-electrode voltage clamp, Xenopus oocytes injected with EGTA): 950 nM
